The term IC50 denotes the concentration that inhibits the measured activity by half.

Ends that are not written are not given here.

For one assay, the target named is HLA-B27:05 (Homo sapiens, UniProt P01889, D138H/D201E/E176V/E204Q/G107R/H137Y/K202T/N104T/N87E/Q56L/Q94K/R106L/R155S/R180L/S101D/S121N/S48T/Y140D/Y33H/Y91C). Nature of the assay: IC50 in vitro measurement, peptide exchange assay with fluorescence anisotropy. In kind it is binding. (In general: In fluorescence polarisation assays a small probe gives low polarisation when free and higher when bound to something large.)
In turn, GRIAFFLKY [SYTL4^S363F] displayed an IC50 of 214.7 ± 1.8 nM.

As for GRIAFSLKY [SYTL4^WT], 97.3 ± 2.1 nM corresponded to half-maximal inhibition (IC50).

The target in another assay is HLA-A03:01 (Homo sapiens, UniProt P04439). Described as above.
Sequence KLILWRGLK [NCAPG2^P333L] yielded an IC50 of 202.9 ± 1.03 nM.

Turning to KPILWRGLK [NCAPG2^WT], it took 4490 nM to reach half-maximal inhibition (IC50).

RLFLGLAIK [KIF2C^P13L]: half-maximal inhibition (IC50) required 237.4 ± 2 nM.

Regarding RLFPGLAIK [KIF2C^WT], the IC50 came out at 146.2 ± 1.1 nM.
